Results taken from patent US8481576B2 (Abbott GmbH & Co. KG, priority 2004, dated 2013).
pKi: −log10 of the molar value. Counter-ions that a name gives are not always drawn.

Target: T1, h5-HT5A receptor (Homo sapiens, UniProt P47898)
T1 construct: expressed in transfected cells; host or cells: HEK293
Experiment: [3H]5-CT binding assay h5-HT5A
Conditions: membranes from HEK293 cells expressing h5-HT5A, 2.5 nM [3H]5-CT; read-out: Binding affinity 5-HT5A (Ki)
Procedure, shortened: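 Membranes from HEK293 cells stably expressing h5-HT5A incubated with 2.5 nM [3H]5-CT and compound in 100 mM Tris-HCl pH 7.7, 1 mM EDTA, 75 min at 30° C. Nonspecific binding with 10 μM methiothepine; filtration and scintillation counting give Ki or IC50.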

T1 sequence (P47898 whole entry): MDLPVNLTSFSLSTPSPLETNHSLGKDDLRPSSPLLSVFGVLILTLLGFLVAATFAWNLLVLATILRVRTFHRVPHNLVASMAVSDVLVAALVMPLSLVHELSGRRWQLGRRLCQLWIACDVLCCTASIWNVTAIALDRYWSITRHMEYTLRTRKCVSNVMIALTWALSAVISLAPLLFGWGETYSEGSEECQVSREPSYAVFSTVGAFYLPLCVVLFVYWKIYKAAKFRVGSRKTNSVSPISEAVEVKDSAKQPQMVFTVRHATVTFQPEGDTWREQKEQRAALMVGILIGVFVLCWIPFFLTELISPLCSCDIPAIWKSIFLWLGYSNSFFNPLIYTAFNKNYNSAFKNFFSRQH

Cc1ccccc1CNC(=N)Nc1nccs1 [Example 12, N-(2-methylbenzyl)-N′-1,3-thiazole-2-ylguandine] and COc1ccccc1CCNC(=N)Nc1nccs1 [Example 16, N-[2-(2-methoxyphenyl)ethyl]-N′-1,3-thiazole-2-ylguanidine hydrochloride] cannot be ordered by pKi: under 6.30 for the first, under 6.30 for the second.

COc1cccc(OC)c1CNC(=N)Nc1nc(-c2ccc(F)c3ccccc23)cs1 [Example 114, N-(2,6-dimethoxybenzyl)-N′-[4-(4-fluoro-1-naphthyl)-1,3-thiazole-2-yl]guanidine] and COc1cccc(OC)c1CNC(=N)Nc1nc(-c2ccnc3c(F)cccc23)cs1 [Example 165, N-(2,6-dimethoxybenzyl)-N′-[4-(8-fluorochinoline-4-yl)-1,3-thiazole-2-yl]guanidine] cannot be ordered by pKi: over 7.30 for the first, over 7.30 for the second.

Compared with COc1cccc(OC)c1CNC(=N)Nc1nc2c(s1)CN(C(C)=O)CC2 [Example 224, N-(5-acetyl-4,5,6,7-tetrahydro[1,3]thiazolo[5,4-c]pyridine-2-yl)-N′-(2,6-dimethoxybenzyl)guanidine], COc1ccc(CNC(=N)Nc2nccs2)cc1 [Example 15, N-(4-methoxybenzyl)-N′-1,3-thiazole-2-ylguanidine] is lower in pKi: over 7.30 for the first, under 6.30 for the second.

Target: HIV-1 RT (Human immunodeficiency virus type 1 group M subtype B, UniProt P03366)
Experiment: not given
Conditions: Bioorg. Med. Chem. Lett. 2000 (10), 265-268; cited from earlier work

For COc1ccccc1CCNC(=N)Nc1nccs1 [N-[2-(2-methoxyphenyl)ethyl]-N′-1,3-thiazole-2-ylguanidine], the biological activity is given as “did not show any demonstrable biological activity”.
